# Measurements: ChEMBL document CHEMBL6078677, “Discovery and optimization of tetrahydroacridine derivatives as a novel class of antibiotics against multidrug-resistant Gram-positive pathogens by targeting type I signal peptidase and disrupting bacterial membrane” (Eur J Med Chem, 2025)
# Active and inactive are the calls of the source. The calls are words filed in the database; no cut-off is given here.
# Experiments:
# Staphylococcus aureus [1] = assay: Drug resistance, ratio of MIC for Staphylococcus aureus ATCC 29213 measured after 28 days to MIC for Staphylococcus aureus ATCC 29213 measured after 20 hrs; type: functional
# [2] = Hemolytic activity in Kunming mouse erythrocytes assessed as hemolysis at 8 times of MIC measured after 1 hrs by absorbance based assay relative to control; type: toxicity, cell-based, Erythrocyte; details: read-out: Activity
# Enterococcus faecalis [3] = assay: microbe, parasite or virus in culture; type: functional; details: SF23-1, time 20 hrs
# Description: Antimicrobial activity against Enterococcus faecalis SF23-1 harboring erythromycin-resistance rRNA methylase B, tetracycline efflux protein L and chloramphenicol-florfenicol resistance methylase assessed as inhibition of visible growth of bacteria incubated for 20 hrs by broth microdilution method
# [4] = Metabolic stability in human liver microsomes assessed as hepatic extraction ratio at 100 uM preincubated for 5 mins followed by NADPH addition and measured upto 60 mins by LC-MS/MS analysis; type: ADME, Microsome; details: time < 65 min, read-out: ERH
# Staphylococcus aureus [5] = assay: Antibiofilm activity against Staphylococcus aureus ATCC 29213 assessed as eradication of preformed biofilm by measuring residual biomass at 2 microg/ml measured after 72 hrs by crystal violet staining based analysis relative to control; type: functional; details: dose 2 µg/ml
# Staphylococcus aureus [6] = assay: Bactericidal activity against Staphylococcus aureus ATCC 29213 assessed as bacterial killing at 8 times of MIC measured within 12 hrs by time-kill kinetics assay; type: functional, organism-based
# [7] = Cytotoxicity against human HEp-2 cells assessed as cell viability at 16 times of MIC incubated for 48 hrs by CCK8 assay (reference value: 100 %); type: toxicity, cell-based; details: read-out: Activity
# [8] = Acute toxicity in ICR mouse model assessed as change in kidney pathology at 25 to 100 mg/kg, IG administered for 7 days by H and E staining based analysis; type: organism-based; details: in vivo, po, 168 h, dose 25-100 mg/kg, time 7 day
# [9] = Acute toxicity in ICR mouse model assessed as effect on animal survival at 25 to 100 mg/kg, IG administered for 7 days; type: organism-based; details: in vivo, po, 168 h, dose 25-100 mg/kg, time 7 day
# [10] = Hemolytic activity in Kunming mouse erythrocytes assessed as hemolysis at 4 times of MIC measured after 1 hrs by absorbance based assay relative to control; type: toxicity, cell-based, Erythrocyte; details: read-out: Activity
# [11] = Metabolic stability in rat liver microsomes assessed as intrinsic clearance at 100 uM preincubated for 5 mins followed by NADPH addition and measured upto 60 mins by LC-MS/MS analysis; type: ADME, Microsome; details: time < 65 min, read-out: CLH
# Streptococcus suis [12] = assay: Antimicrobial activity against Streptococcus suis P1/7 assessed as inhibition of visible growth of bacteria incubated for 20 hrs by broth microdilution method; type: functional
# Staphylococcus aureus [13] = assay: Bactericidal activity against Staphylococcus aureus ATCC 29213 assessed as bacterial eradication at 4 times of MIC measured after 24 hrs by time-kill kinetics assay relative to control; type: functional
# Cell membrane = assay: Disruption of cell membrane integrity in Staphylococcus aureus ATCC 29213 assessed as appearance of shriveled surface at 0.5 to 2 times of MIC by scanning electron microscopic analysis; type: subcellular
# [14] = Metabolic stability in human liver microsomes assessed as intrinsic clearance at 100 uM preincubated for 5 mins followed by NADPH addition and measured upto 60 mins by LC-MS/MS analysis; type: ADME, Microsome; details: time < 65 min, read-out: CLH
# Staphylococcus aureus [15] = assay: Disruption of preformed biofilm in Staphylococcus aureus ATCC 29213 at 1 microg/ml measured after 72 hrs by crystal violet staining based analysis relative to control; type: functional; details: dose 1 µg/ml
# [16] = Acute toxicity in ICR mouse model assessed as change in lung pathology at 25 to 100 mg/kg, IG administered for 7 days by H and E staining based analysis; type: organism-based; details: in vivo, po, 168 h, dose 25-100 mg/kg, time 7 day
# Staphylococcus aureus [17] = assay: Antimicrobial activity against Staphylococcus aureus YZSA-15 harboring erythromycin resistance rRNA methylase C and vancomycin resistance locus assessed as inhibition of visible growth of bacteria incubated for 20 hrs by broth microdilution method; type: functional
# Staphylococcus aureus [18] = assay: Disruption of preformed biofilm in Staphylococcus aureus ATCC 29213 assessed as increase in red fluorescence at 0.5 to 2 times of MIC measured after 72 hrs by SYTO-9/PI staining based CLSM imaging analysis; type: functional, organism-based
# Salmonella enteritidis = assay: Antimicrobial activity against Salmonella enteritis S1 assessed as inhibition of visible growth of bacteria incubated for 20 hrs by broth microdilution method; type: functional, Salmonella enterica subsp. enterica serovar Enteritidis; details: Salmonella enterica
# Staphylococcus aureus [19] = assay: microbe, parasite or virus in culture; type: functional; details: M147-2, time 20 hrs
# Description: Antimicrobial activity against Staphylococcus aureus M147-2 harboring erythromycin resistance rRNA methylase B, tetracycline efflux protein L and chloramphenicol-florfenicol resistance methylase assessed as inhibition of visible growth of bacteria incubated for 20 hrs by broth microdilution method
# [20] = Acute toxicity in ICR mouse model assessed as change in liver pathology at 25 to 100 mg/kg, IG administered for 7 days by H and E staining based analysis; type: organism-based; details: in vivo, po, 168 h, dose 25-100 mg/kg, time 7 day
# [21] = Hemolytic activity in Kunming mouse erythrocytes measured after 1 hrs by absorbance based assay; type: toxicity, cell-based, Erythrocyte
# Staphylococcus aureus [22] = assay: Antibiofilm activity against Staphylococcus aureus ATCC 29213 assessed as eradication of preformed biofilm measured after 72 hrs by crystal violet staining based analysis; type: functional, organism-based
# Enterococcus faecium = assay: Antimicrobial activity against Enterococcus faecium MC38 harboring erythromycin resistance rRNA methylase B and oxazolidinone-phenicol transferable resistance gene assessed as inhibition of visible growth of bacteria incubated for 20 hrs by broth microdilution method; type: functional
# [23] = Cytotoxicity against human HEp-2 cells assessed as cell viability at 4 times of MIC incubated for 48 hrs by CCK8 assay (reference value: 100 %); type: toxicity, cell-based; details: read-out: Activity
# Staphylococcus aureus [24] = assay: microbe, parasite or virus in culture; type: functional; details: M92-1, time 20 hrs
# Description: Antimicrobial activity against Staphylococcus aureus M92-1 harboring erythromycin resistance rRNA methylase B, tetracycline efflux protein L and oxazolidinone-phenicol transferable resistance gene assessed as inhibition of visible growth of bacteria incubated for 20 hrs by broth microdilution method
# [25] = Acute toxicity in ICR mouse model assessed as change in spleen pathology at 25 to 100 mg/kg, IG administered for 7 days by H and E staining based analysis; type: organism-based; details: in vivo, po, 168 h, dose 25-100 mg/kg, time 7 day
# Staphylococcus aureus [26] = assay: Antibacterial activity against methicillin-resistant Staphylococcus aureus YZSA-24 infected in cyclophosphamide-induced neutrophil depleted female ICR mouse model of skin infection assessed as log reduction in bacterial load at 2.5 %, TOP preadministered with cyclophosphamide for 5 days followed by bacterial administration and measured after 25 hrs of compound administration relative to vehicle group; type: functional
# Staphylococcus aureus [27] = assay: Antibacterial activity against methicillin-resistant Staphylococcus aureus YZSA-24 infected in cyclophosphamide-induced neutrophil depleted female ICR mouse model of skin infection assessed as log reduction in bacterial load at 1 %, TOP preadministered with cyclophosphamide for 5 days followed by bacterial administration and measured after 25 hrs of compound administration relative to vehicle group; type: functional
# [28] = Hemolytic activity in Kunming mouse erythrocytes assessed as hemolysis at 16 times of MIC measured after 1 hrs by absorbance based assay relative to control; type: toxicity, cell-based, Erythrocyte; details: read-out: Activity
# [29] = Cytotoxicity against human HEp-2 cells assessed as cell viability at 8 times of MIC incubated for 48 hrs by CCK8 assay (reference value: 100 %); type: toxicity, cell-based; details: read-out: Activity
# [30] = Cytotoxicity against human Caco-2 cells assessed as cell viability at 2 times of MIC incubated for 48 hrs by CCK8 assay (reference value: 99.54 %); type: toxicity, cell-based; details: read-out: Activity
# [31] = Cytotoxicity against human HEp-2 cells assessed as reduction in cell viability incubated for 48 hrs by CCK8 assay; type: toxicity, cell-based
# Streptococcus suis [32] = assay: microbe, parasite or virus in culture; type: functional; details: SH0918, time 20 hrs
# Description: Antimicrobial activity against Streptococcus suis SH0918 harboring erythromycin-resistance rRNA methylase B, tetracycline efflux protein O and oxazolidinone phenicol transferable resistance gene assessed as inhibition of visible growth of bacteria incubated for 20 hrs by broth microdilution method
# [33] = Cytotoxicity against human Caco-2 cells assessed as cell viability at 4 times of MIC incubated for 48 hrs by CCK8 assay (reference value: 99.54 %); type: toxicity, cell-based; details: read-out: Activity
# Enterococcus faecalis [34] = assay: Antimicrobial activity against Enterococcus faecalis ES01 harboring erythromycin-resistance rRNA methylase B and vanB-type vancomycin-resistance locus assessed as inhibition of visible growth of bacteria incubated for 20 hrs by broth microdilution method; type: functional
compound,measurement,setting,value
CC1C/C(=C\c2ccc(-c3ccc(Cl)c(C(F)(F)F)c3)s2)c2nc3ccccc3c(C(=O)O)c2C1 (racemic),Ratio,Staphylococcus aureus [1],2
same,"hemolysis at 1 h, 8 times of MIC",[2],5.4%
same,MIC,Enterococcus faecalis [3],1 µg/mL
same,"hepatic extraction ratio at 1 h, 100 µM",[4],< 0.27
same,Activity,Staphylococcus aureus [5],31.4%
same,Activity,Staphylococcus aureus [6],Active
same,"viability at 48 h, 16 times of MIC",[7],44.5%
same,Activity,[8],Non-toxic
same,Activity,[9],Non-toxic
same,"hemolysis at 1 h, 4 times of MIC",[10],0.65%
same,microsomal CLint at 100 µM,[11],< 7.5 µL/min/mg
same,MIC,Streptococcus suis [12],16 µg/mL
same,Activity,Staphylococcus aureus [13],100%
same,Activity,Cell membrane,Active
same,microsomal CLint at 100 µM,[14],< 7.5 µL/min/mg
same,Activity,Staphylococcus aureus [15],~50%
same,Activity,[16],Non-toxic
same,MIC,Staphylococcus aureus [17],1 µg/mL
same,Activity,Staphylococcus aureus [18],Active
same,MIC,Salmonella enteritidis,128 µg/mL
same,MIC,Staphylococcus aureus [19],1 µg/mL
same,Activity,[20],Non-toxic
same,HC50 at 1 h,[21],13.3 µg/mL
same,Activity,Staphylococcus aureus [22],Dose-dependent-effect
same,MIC,Enterococcus faecium,2 µg/mL
same,"viability at 48 h, 4 times of MIC",[23],91.4%
same,MIC,Staphylococcus aureus [24],1 µg/mL
same,Activity,[25],Non-toxic
same,Activity,Staphylococcus aureus [26],2.36 log10CFU/ml
same,Activity,Staphylococcus aureus [27],1.27 log10CFU/ml
same,"hemolysis at 1 h, 16 times of MIC",[28],74%
same,"viability at 48 h, 8 times of MIC",[29],82.5%
same,"viability at 48 h, 2 times of MIC",[30],96.6%
same,CC50 at 48 h,[31],14.7 µg/mL
same,MIC,Streptococcus suis [32],16 µg/mL
same,"viability at 48 h, 4 times of MIC",[33],92.9%
same,MIC,Enterococcus faecalis [34],2 µg/mL
